Measured values as given in publication PMC5384650 (Molecular microbiology, 2016).

Target: T1, threonine dehydratase (IlvA) (Salmonella enterica, UniProt P20506)
T1 sequence (P20506 1-514): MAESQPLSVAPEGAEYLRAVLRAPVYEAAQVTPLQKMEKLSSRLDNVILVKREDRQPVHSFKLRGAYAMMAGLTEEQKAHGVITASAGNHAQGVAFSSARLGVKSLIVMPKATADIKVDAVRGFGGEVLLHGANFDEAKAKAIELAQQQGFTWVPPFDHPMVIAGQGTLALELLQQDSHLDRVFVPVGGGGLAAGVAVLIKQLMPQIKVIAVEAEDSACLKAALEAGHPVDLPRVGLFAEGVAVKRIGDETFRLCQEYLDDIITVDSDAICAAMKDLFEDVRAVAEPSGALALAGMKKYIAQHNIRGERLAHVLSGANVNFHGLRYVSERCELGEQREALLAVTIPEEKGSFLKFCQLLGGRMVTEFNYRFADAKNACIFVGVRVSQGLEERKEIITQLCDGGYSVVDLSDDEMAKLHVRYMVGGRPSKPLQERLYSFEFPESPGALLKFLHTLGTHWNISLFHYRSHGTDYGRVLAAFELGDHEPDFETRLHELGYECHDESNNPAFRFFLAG
Type: biochemical

Structure (SMILES): NC[C@H](N)C(=O)O [Dap, L-2,3-diaminopropionate]
- Ki: 1.7 mM
